# Data taken from article PMC5410339, “dUTPase inhibition augments replication defects of 5-Fluorouracil” (Oncotarget, 2017).
# Legend:
# dUTPase [1] = target: T1, dUTPase (Homo sapiens, UniProt P33316); test: malachite green assay of substrate hydrolysis by purified enzyme; format: biochemical
# T1 construct: gene DUT; human recombinant dUTPase
# T1 sequence (P33316 70-252): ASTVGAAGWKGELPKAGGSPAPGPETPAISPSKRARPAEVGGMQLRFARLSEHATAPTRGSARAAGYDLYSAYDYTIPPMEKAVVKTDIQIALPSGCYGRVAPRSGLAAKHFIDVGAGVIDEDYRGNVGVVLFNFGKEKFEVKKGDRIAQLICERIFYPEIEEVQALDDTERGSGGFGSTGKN
# dUTPase [2] = target: T1, dUTPase; test: malachite green activity assay with dUTP as substrate, purified recombinant enzyme; format: biochemical
compound,measurement,setting,value
O=c1[nH]c(=O)n([C@H]2C[C@H](O)[C@@H](COP(=O)(O)OP(=O)(O)OP(=O)(O)O)O2)cc1F [5-FdUTP],malachite green assay of substrate hydrolysis by purified enzyme,dUTPase [1],5.5 μM formed PPi per second per μM enzyme
O=C(CCCn1ccc(=O)[nH]c1=O)N1CCC[C@H]1C(c1ccccc1)c1ccccc1 [compound 1],IC50,dUTPase [2],740 nM
CC(NS(=O)(=O)CCCOCn1ccc(=O)[nH]c1=O)c1cccc(OC2CCCC2)c1 (stereo not shown) [compound 2],IC50,dUTPase [2],25 nM
O=c1ccn([C@H]2C[C@H](O)[C@@H](COP(=O)(O)OP(=O)(O)OP(=O)(O)O)O2)c(=O)[nH]1 [dUTP],malachite green assay of substrate hydrolysis by purified enzyme,dUTPase [1],6.6 μM formed PPi per second per μM enzyme
